From article PMC5908784, “Extracellular loops 2 and 3 of the calcitonin receptor selectively modify agonist binding and efficacy” (Biochemical Pharmacology, 2018)
Numbering of substitutions follows the chain as printed. Where a SMILES comes first, the peptide text is derived from it. Bridges are numbered along the chain shown (N, C = ends).

Legend:
Assay in all cases: cAMP accumulation
Type in all cases: cell-based
hCTR L291A = molecular target: T1, hCTR L291A (Homo sapiens, UniProt P30988, L291A); details: mean ± S.E.M.; for Emax: cAMP maximal response, SEM
T1 construct: expressed in transfected cells
T1 sequence (P30988 25-474 L291A): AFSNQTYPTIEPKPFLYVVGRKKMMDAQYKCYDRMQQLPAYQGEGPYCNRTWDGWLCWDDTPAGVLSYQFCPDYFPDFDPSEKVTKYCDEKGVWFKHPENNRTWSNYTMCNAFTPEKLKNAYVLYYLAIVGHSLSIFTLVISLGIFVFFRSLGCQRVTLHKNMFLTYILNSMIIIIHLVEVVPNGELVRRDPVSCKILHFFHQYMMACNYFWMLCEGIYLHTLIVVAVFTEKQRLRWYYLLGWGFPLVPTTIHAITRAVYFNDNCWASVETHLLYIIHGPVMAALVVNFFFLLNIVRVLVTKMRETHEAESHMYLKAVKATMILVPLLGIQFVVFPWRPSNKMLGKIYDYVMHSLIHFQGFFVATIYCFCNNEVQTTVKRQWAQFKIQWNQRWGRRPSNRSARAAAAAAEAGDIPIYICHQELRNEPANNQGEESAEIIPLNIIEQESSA
Procedure, shortened: (§1)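 Plated cells were incubated overnight and then challenged with rising ligand concentrations for 30 min alongside IBMX. Medium was replaced by absolute ethanol, which was evaporated at room temperature before cAMP determination. Values are normalized to 100 μM forskolin.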

hCTR L297A = molecular target: T2, hCTR L297A (Homo sapiens, UniProt P30988, L297A); details: mean ± S.E.M.; for Emax: cAMP maximal response, SEM; for EC50: cAMP, CV1-FlpIn cells, 30 min, IBMX
T2 construct: c-Myc (N); expressed in transfected cells
T2 sequence (P30988 25-474 L297A): T1 sequence (P30988 25-474 L291A) with A267L, L273A
Procedure, shortened: as §1

hCTR M367A = molecular target: T3, hCTR M367A (Homo sapiens, UniProt P30988, M367A); details: mean ± S.E.M.; for Emax: cAMP maximal response, SEM; for EC50: cAMP, CV1-FlpIn cells, 30 min, IBMX
T3 construct: c-Myc (N); expressed in transfected cells
T3 sequence (P30988 25-474 M367A): T1 sequence (P30988 25-474 L291A) with A267L, M343A
Procedure, shortened: as §1

hCTR N286A = molecular target: T4, hCTR N286A (Homo sapiens, UniProt P30988, N286A); details: mean ± S.E.M.; for Emax: cAMP maximal response, SEM; for EC50: cAMP, CV1-FlpIn cells, 30 min, IBMX
T4 construct: c-Myc (N); expressed in transfected cells
T4 sequence (P30988 25-474 N286A): T1 sequence (P30988 25-474 L291A) with N262A, A267L
Procedure, shortened: as §1

hCTR N365A = molecular target: T5, hCTR N365A (Homo sapiens, UniProt P30988, N365A); details: mean ± S.E.M.; for Emax: cAMP maximal response, SEM; for EC50: cAMP, CV1-FlpIn cells, 30 min, IBMX
T5 construct: c-Myc (N); expressed in transfected cells
T5 sequence (P30988 25-474 N365A): T1 sequence (P30988 25-474 L291A) with A267L, N341A
Procedure, shortened: as §1

EC50 (hCTR L297A) [pM]	EC50 (hCTR M367A) [pM]	EC50 (hCTR N286A) [pM]	EC50 (hCTR N365A) [pM]	EC50 (hCTR L291A; cAMP, CV1-FlpIn cells, 30 min, IBMX) [pM]	Compound	Emax (hCTR L291A) [%]	Emax (hCTR L297A) [%]	Emax (hCTR M367A) [%]	Emax (hCTR N286A) [%]	Emax (hCTR N365A) [%]
36300	[…]	[…]	15500		CC(C)C[C@H](NC(=O)CNC(=O)[C@H](C)NC(=O)[C@H](CC(C)C)NC(=O)[C@H](CCCNC(=N)N)NC(=O)[C@H](Cc1cnc[nH]1)NC(=O)[C@@H](NC(=O)[C@@H](NC(=O)[C@@H]1CSSC[C@H](NC(=O)[C@H](C)N)C(=O)N[C@@H](CC(=O)O)C(=O)N[C@@H]([C@@H](C)O)C(=O)N[C@@H](C)C(=O)N[C@@H]([C@@H](C)O)C(=O)N1)C(C)C)[C@@H](C)O)C(=O)N[C@@H](CC(C)C)C(=O)N[C@@H](CO)C(=O)N[C@@H](CCCNC(=N)N)C(=O)N[C@@H](CO)C(=O)NCC(=O)NCC(=O)N[C@H](C(=O)N[C@H](C(=O)N[C@@H](CCCCN)C(=O)N[C@@H](CC(N)=O)C(=O)N[C@@H](CC(N)=O)C(=O)N[C@@H](Cc1ccccc1)C(=O)N[C@H](C(=O)N1CCC[C@H]1C(=O)N[C@H](C(=O)N[C@@H](CC(N)=O)C(=O)N[C@H](C(=O)NCC(=O)N[C@@H](CO)C(=O)N[C@@H](CCCCN)C(=O)N[C@@H](C)C(=O)N[C@@H](Cc1ccccc1)C(N)=O)C(C)C)[C@@H](C)O)C(C)C)C(C)C)C(C)C [hαCGRP]	101 ± 36	[…]	[…]	46 ± 16	111 ± 13
100 ± 2	15.8	200	31.6	316	CSCC[C@H](NC(=O)CNC(=O)[C@H](CO)NC(=O)[C@H](Cc1ccccc1)NC(=O)[C@H](CCCNC(=N)N)NC(=O)[C@H](Cc1c[nH]cn1)NC(=O)[C@H](Cc1ccccc1)NC(=O)[C@H](CC(N)=O)NC(=O)[C@H](CC(N)=O)NC(=O)[C@H](CC(C)C)NC(=O)[C@H](CC(N)=O)NC(=O)[C@H](CCCNC(=N)N)NC(=O)[C@H](Cc1c[nH]c2ccccc12)NC(=O)[C@H](Cc1ccc(O)cc1)NC(=O)[C@H](C)NC(=O)[C@H](CO)NC(=O)[C@H](CC(C)C)NC(=O)[C@@H](NC(=O)[C@@H]1CSSC[C@H](N)C(=O)N[C@@H](CO)C(=O)N[C@@H](CC(N)=O)C(=O)N[C@@H](CC(C)C)C(=O)N[C@@H](CO)C(=O)N[C@@H]([C@@H](C)O)C(=O)N1)C(C)C)C(=O)NCC(=O)N[C@@H](Cc1ccccc1)C(=O)NCC(=O)N1CCC[C@H]1C(=O)N[C@@H](CCC(=O)O)C(=O)N[C@H](C(=O)N1CCC[C@H]1C(N)=O)[C@@H](C)O [pCT] (H-CSNLSTCVLSAYWRNLNNFHRFSGMGFGPETP-NH2; disulfide 1-7)	105 ± 5	127 ± 8	73 ± 13	84 ± 6	95 ± 5
					CC(C)C[C@H](NC(=O)[C@H](CCCCN)NC(=O)CNC(=O)[C@H](CC(C)C)NC(=O)[C@@H](NC(=O)[C@@H]1CSSC[C@H](N)C(=O)N[C@@H](CO)C(=O)N[C@@H](CC(N)=O)C(=O)N[C@@H](CC(C)C)C(=O)N[C@@H](CO)C(=O)N[C@@H]([C@@H](C)O)C(=O)N1)C(C)C)C(=O)N[C@@H](CO)C(=O)N[C@@H](CCC(N)=O)C(=O)N[C@@H](CCC(=O)O)C(=O)N[C@@H](CC(C)C)C(=O)N[C@@H](Cc1c[nH]cn1)C(=O)N[C@@H](CCCCN)C(=O)N[C@@H](CC(C)C)C(=O)N[C@@H](CCC(N)=O)C(=O)N[C@H](C(=O)N[C@@H](Cc1ccc(O)cc1)C(=O)N1CCC[C@H]1C(=O)N[C@@H](CCCNC(=N)N)C(=O)N[C@H](C(=O)N[C@@H](CC(N)=O)C(=O)N[C@H](C(=O)NCC(=O)N[C@@H](CO)C(=O)NCC(=O)N[C@H](C(=O)N1CCC[C@H]1C(N)=O)[C@@H](C)O)[C@@H](C)O)[C@@H](C)O)[C@@H](C)O [sCT]	108 ± 4	103 ± 12	79 ± 3	103 ± 6	94 ± 5
					CC[C@H](C)[C@H](NC(=O)[C@H](C)NC(=O)[C@@H](NC(=O)[C@H](CCC(N)=O)NC(=O)[C@@H]1CCCN1C(=O)[C@H](Cc1ccccc1)NC(=O)[C@@H](NC(=O)[C@H](Cc1c[nH]cn1)NC(=O)[C@H](Cc1ccccc1)NC(=O)[C@H](CCCCN)NC(=O)[C@H](CC(N)=O)NC(=O)[C@H](Cc1ccccc1)NC(=O)[C@H](CC(=O)O)NC(=O)[C@H](CCC(N)=O)NC(=O)[C@@H](NC(=O)[C@H](Cc1ccc(O)cc1)NC(=O)[C@@H](NC(=O)CNC(=O)[C@H](CC(C)C)NC(=O)[C@H](CCSC)NC(=O)[C@@H]1CSSC[C@H](N)C(=O)NCC(=O)N[C@@H](CC(N)=O)C(=O)N[C@@H](CC(C)C)C(=O)N[C@@H](CO)C(=O)N[C@@H]([C@@H](C)O)C(=O)N1)[C@@H](C)O)[C@@H](C)O)[C@@H](C)O)[C@@H](C)O)C(=O)NCC(=O)N[C@H](C(=O)NCC(=O)N[C@@H](C)C(=O)N1CCC[C@H]1C(N)=O)C(C)C [hCT]	131 ± 5	91 ± 6	82 ± 4	126 ± 6	96 ± 4
					CC(C)C[C@H](NC(=O)[C@H](CC(N)=O)NC(=O)[C@H](CC(N)=O)NC(=O)[C@H](CO)NC(=O)[C@H](CO)NC(=O)[C@H](CCCNC(=N)N)NC(=O)[C@@H](NC(=O)[C@H](CC(C)C)NC(=O)[C@H](Cc1ccccc1)NC(=O)[C@H](CC(N)=O)NC(=O)[C@H](C)NC(=O)[C@H](CC(C)C)NC(=O)[C@H](CCCNC(=N)N)NC(=O)[C@H](CCC(N)=O)NC(=O)[C@@H](NC(=O)[C@H](C)NC(=O)[C@@H]1CSSC[C@H](NC(=O)[C@@H](N)CCCCN)C(=O)N[C@@H](CC(N)=O)C(=O)N[C@@H]([C@@H](C)O)C(=O)N[C@@H](C)C(=O)N[C@@H]([C@@H](C)O)C(=O)N1)[C@@H](C)O)C(C)C)C(=O)NCC(=O)N1CCC[C@H]1C(=O)N[C@H](C(=O)N[C@@H](CC(C)C)C(=O)N1CCC[C@H]1C(=O)N1CCC[C@H]1C(=O)N[C@H](C(=O)N[C@@H](CC(N)=O)C(=O)N[C@H](C(=O)NCC(=O)N[C@@H](CO)C(=O)N[C@@H](CC(N)=O)C(=O)N[C@H](C(=O)N[C@@H](Cc1ccc(O)cc1)C(N)=O)[C@@H](C)O)C(C)C)[C@@H](C)O)C(C)C [rAmy]	101 ± 13	85 ± 10	93 ± 8	97 ± 15	72 ± 8
